Structures can show the parent of a compound that is named as a salt.
Experiments:
[1] = system: extracellular 5-HT in the NAc; experiment: Fiber photometry with GRAB5-HT sensor in the NAc of freely moving mice; format: in vivo
Description: (§1) All in vivo experiments were performed in adult mice (>6 weeks old). For the photometry and microdialysis experiments, which were carried out in Florida, male C57BL/6J mice from The Jackson Laboratory (Bar Harbor, ME, USA) were group-housed in polycarbonate cages (GM500, Tecniplast, Buguggiate, Italy) with lights on from 7 a.m. to 7 p.m. Food and water were provided ad libitum. Photometry and microdialysis experiments were performed in accordance with a protocol approved by the Institutional Animal Care and Use Committee at Florida Atlantic University. For the behavioral experiments, which were carried out in Vienna, C57BL/6N mice from Charles River (Sulzfeld, Germany) were group-housed in polycarbonate cages with lights on from 7 a.m. to 7 p.m. Food and water were provided ad libitum. Behavioral experiments were performed in accordance with a protocol approved by the Austrian national ethical committee on animal care and use (Bundesministerium für Wissenschaft und Forschung: BMWFW-66.009/0016-WF/V/3b/2015). All animal procedures were conducted in agreement with the ARRIVE guidelines and the U.K. Animal (Scientific Procedures) Act, 1986, and associated guidelines, EU Directive 2010/63/EU for animal experiments. Mice were given at least 1 week to acclimate before being used in any experiments.
Mice were anesthetized with isoflurane (5% induction, 2% maintenance) and placed into a stereotaxic frame (Kopf Instruments, Tujunga, CA, USA) oriented in the flat skull position. Ophthalmic ointment was applied to prevent drying of the eyes. Ketoprofen (10 mg kg^−1) was administered subcutaneously (s.c.), whereas bupivacaine and lidocaine were administered locally (s.c.; 100 µl of sterile saline containing 0.05% bupivacaine and 0.2% lidocaine) to the surgical site atop the head. A midline incision was made through the skin on the dorsal surface of the head to expose the skull. Fascia was removed, coordinates for the NAc were determined relative to bregma: anterior/posterior = 1.54 mm; medial/lateral = 0.7 mm; dorsal/ventral = −4.1 mm. A 1 mm burr hole was drilled through the skull. […] For the mice used for fiber photometry, 4*10^12 genome copies of AAV9-hSyn-5-HT2h or 10^10 genome copies of AAV-hSyn-DA2m were delivered into the NAc at an infusion rate of 100 nl min^−1 (total volume of 1 µl) using a 34-gauge needle attached to a 10 µl Nanofil microsyringe (Hamilton, Reno, NV, USA), as previously described. Following injection of the virus, an optical fiber was lowered through the burr hole and secured with glass ionomer cement. Three 1.6 mm screws (00-96X1/16 39052, Plastics One Inc., Roanoke, VA, USA) were affixed to the skull to support a cement stage that was created to secure the implanted guide cannulae or optical fiber. Mice were singly housed following surgery and allowed 6 days of recovery for the microdialysis experiments or 21 days for the photometry experiments. Food and water were available ad libitum.
To monitor light emitted from the G-protein coupled receptor-activation-based 5-HT (GRAB5-HT) and DA (GRABDA) sensors, fiber photometry was performed as described. Briefly, a light emitting diode (465 nm) (CLED_465, Doric Lenses, Quebec, QC, Canada), reflected through a dichroic mirror, was coupled to an optical fiber (200 µm core/225 cladding diameter; Thorlabs, Newton, NJ, USA) that was glued to a metal ferrule (Doric Lenses, Quebec, QC, Canada) and implanted into the NAc as described above. Emitted, band-pass filtered light (500–550 nm, FMC6, Doric Lenses, Quebec,QC, Canada) was detected with a photodetector (Newport Femtowatt silicone PIN; New Focus, San Jose, CA, USA). Data were recorded using a RZ5P lock-in amplifier (Tucker-Davis Technologies, Alachua, FL, USA) controlled with Synapse software. Sinusoidal excitation was delivered at 210 Hz by an LED driver Doric Lenses, LEDD_4) at low power mode. A demodulated signal was low-pass filtered at 6 Hz and digitized at 1017 Hz. […]

[2] = system: C57BL/6N mice; experiment: Forced-swim test (FST); format: in vivo; settings: for immobility time in the FST versus vehicle: mice
Description: as §1
(§2) For behavioral assays, animals were assigned to treatment groups and injected with test drugs by an unblinded observer.
The FST was performed as previously described. In brief, mice were placed for 6 min in a beaker (diameter: 19 cm, height: 23 cm), halfway filled with water (22–23 °C), and the immobility time was quantified using the software Videotrack (Viewpoint, Champagne au Mont d’Or, France). Immobility was defined as the absence of any movement, except for those required to keep the head above the water. The time spent immobile during the final 4 min of the test was used as a measure of behavioral despair. Animal sample size was confirmed using a post hoc analysis of the achieved power using G*Power3.1 [29]. Using a significance level (α) of 0.05 and an effect size f = 2.5 and a sample size of 6 animals/group we achieved the commonly accepted statistical power (1−β) of 0.8.

[3] = biological target: T1, human SERT (Homo sapiens, UniProt P31645); experiment: [3H]5-HT release assay in HEK293 cells (superfusion); format: cell-based; settings: 10 µM, SERT-expressing HEK293 cells
T1 construct: expressed in transfected cells
T1 sequence (P31645 whole entry, the tested form may be a part): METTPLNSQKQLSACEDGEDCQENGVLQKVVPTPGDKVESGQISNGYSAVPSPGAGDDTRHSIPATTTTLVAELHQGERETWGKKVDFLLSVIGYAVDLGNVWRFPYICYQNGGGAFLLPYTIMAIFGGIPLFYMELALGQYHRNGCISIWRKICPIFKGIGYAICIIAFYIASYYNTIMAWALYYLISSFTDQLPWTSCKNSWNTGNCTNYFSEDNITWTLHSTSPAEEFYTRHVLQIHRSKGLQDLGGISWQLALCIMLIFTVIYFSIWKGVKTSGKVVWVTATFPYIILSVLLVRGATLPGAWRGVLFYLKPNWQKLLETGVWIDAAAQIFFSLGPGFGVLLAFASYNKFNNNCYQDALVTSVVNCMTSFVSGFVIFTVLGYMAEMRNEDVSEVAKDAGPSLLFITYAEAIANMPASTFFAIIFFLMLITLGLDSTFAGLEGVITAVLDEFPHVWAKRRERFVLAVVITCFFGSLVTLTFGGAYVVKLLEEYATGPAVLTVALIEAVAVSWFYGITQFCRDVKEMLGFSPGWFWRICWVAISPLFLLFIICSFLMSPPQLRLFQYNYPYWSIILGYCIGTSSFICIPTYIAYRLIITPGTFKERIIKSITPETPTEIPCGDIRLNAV
Description: HEK293 cells stably expressing SERT were seeded onto PDL-coated glass coverslips (5 mm diameter) that were placed into 96-well plates at a density of 40,000 cells per well the day before the experiment. Cells were preloaded with [^3H]5-HT (0.4 µM, 20 min at 37 °C). Subsequently, the cells were transferred into small chambers with a total volume of 200 µl and superfused with KHB at a flow rate of 0.7 ml per min for 40 min to establish a stable baseline before the collection of 2-min fractions was initiated. For each experiment, three basal fractions were collected before the cells were exposed to various concentrations (given in the figure legends) of the test drugs for five fractions. Subsequently, the cells were superfused with 1% SDS for three final fractions that served to determine the total amount of radioactivity present within the cells at the end of each experimental run. The amount of tritium within each fraction was determined by liquid scintillation counting, and release was expressed as percentage of radioactivity released in relation to the total radioactivity present at the beginning of that fraction. Observations from superfusion experiments were excluded in case of premature exposure to SDS.

[4] = biological target: T2, human DAT (Homo sapiens, UniProt Q01959); experiment: DAT uptake inhibition assay in HEK293 cells ([3H]MPP+); format: cell-based; settings: for DAT/SERT ratio: (1/DAT IC50)/(1/SERT IC50), higher values indicate higher DAT-selectivity
T2 construct: expressed in transfected cells
T2 sequence (Q01959 whole entry): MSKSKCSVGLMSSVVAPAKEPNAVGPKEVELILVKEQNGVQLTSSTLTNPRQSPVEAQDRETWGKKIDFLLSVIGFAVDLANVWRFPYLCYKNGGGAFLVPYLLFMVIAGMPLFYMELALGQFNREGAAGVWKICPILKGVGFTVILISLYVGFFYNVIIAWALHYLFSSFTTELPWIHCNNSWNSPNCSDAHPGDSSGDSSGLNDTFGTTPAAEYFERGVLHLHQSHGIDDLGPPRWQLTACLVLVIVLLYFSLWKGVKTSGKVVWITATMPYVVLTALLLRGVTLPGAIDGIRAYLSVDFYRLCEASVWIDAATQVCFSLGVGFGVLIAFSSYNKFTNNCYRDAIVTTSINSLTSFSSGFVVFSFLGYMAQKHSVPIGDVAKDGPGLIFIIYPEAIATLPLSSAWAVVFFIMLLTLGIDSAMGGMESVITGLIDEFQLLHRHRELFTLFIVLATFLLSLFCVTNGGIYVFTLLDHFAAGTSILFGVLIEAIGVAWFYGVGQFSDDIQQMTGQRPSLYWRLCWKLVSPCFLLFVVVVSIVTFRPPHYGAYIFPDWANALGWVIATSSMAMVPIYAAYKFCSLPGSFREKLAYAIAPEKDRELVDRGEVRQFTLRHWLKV
Description: (§3) Human embryonic kidney 293 (HEK293) cells stably expressing the human isoforms of either DAT or SERT were maintained in Dulbecco’s Modified Eagle Medium (DMEM), supplemented with 10% fetal calf serum at a subconfluent state in humidified atmosphere (5% CO2, 37 °C).
(§4) Uptake inhibition assays were performed as described earlier. Briefly, HEK293 cells stably expressing human SERT or DAT were seeded onto poly- D-lysine (PDL) coated 96-well plates (40,000 cells well^−1) the day before an experiment. Prior to the uptake inhibition assay, DMEM was replaced with Krebs-HEPES buffer (KHB, 25 mM HEPES, 120 mM NaCl, 5 mM KCl, 1.2 mM CaCl2, 1.2 mM MgSO4, and 5 mM D-glucose, pH 7.3) and the cells were preincubated with test drugs for 5 min at room temperature. Uptake assays were initiated by adding 20 nM [^3H]MPP^+ to DAT cells or 100 nM [^3H]5-HT to SERT cells. After 180 s (DAT) or 60 s (SERT), the tritiated substrate was removed by aspiration. Cells were washed once with ice-cold KHB, then lysed in 1% sodium dodecyl sulfate (SDS) and subjected to liquid scintillation counting to quantify tritium accumulated in each sample. Non-specific uptake was determined in the presence of mazindol (1 µM) for DAT or paroxetine (1 µM) for SERT and subtracted throughout.

[5] = biological target: T1, human SERT; experiment: SERT uptake inhibition assay in HEK293 cells ([3H]5-HT); format: cell-based
Description: as §3, §4

[6] = system: C57BL/6N mice; experiment: Open-field test; format: in vivo; settings: for horizontal locomotor activity (total distance traveled) in the open field test: 1 h
Description: as §1, §2
Mice were placed into an open field arena (27.3 × 27.3 × 27.3 cm) surrounded by infrared beams to track movements. The total distance traveled over 1 h was recorded using Activity Monitor (Med Associates Inc., St. Albans, VT, USA) and interpreted as a measure of the psychostimulant effects. Animal sample size was confirmed using a post hoc analysis of the achieved power using G*Power3.1 [29]. Using a significance level (α) of 0.05 and an effect size f = 1.92 and a sample size of 7.5 animals (5–10)/group we achieved the commonly accepted statistical power (1−β) of 0.8.

[7] = system: VMATs; experiment: VMAT uptake inhibition assay in PC12 cells; format: cell-based; settings: all at 30 µM, relative to inhibition by 30 µM reserpine
Description: VMAT uptake inhibition assays were conducted as previously described, with some modifications. In brief, […] PC12 cells per well were seeded in 24-well plates the day before experimentation. The cells were pretreated with 100 nM nisoxetine and mazindol to inhibit non-specific binding. PC12 cells were then preincubated with 200 µM digitonin to permeabilize membranes and were kept at room temperature on a plate shaker at low velocity for 30 min. Cells were treated with test drugs and shaken for another 10 min. Tritiated substrate (0.05 µM [^3H]5-HT) was added, and the cells incubated on the plate shaker for 30 min. To terminate uptake, cells were transferred into 1.5 ml Eppendorf tubes, centrifuged at 5000 rpm for 5 min. The supernatant was aspirated, cells were washed with cold KHB, recentrifuged and lysed with 200 µl SDS. The solutions were transferred into vials containing 2 ml scintillation cocktail and radioactivity was determined via beta-scintillation counting (Perkin Elmer, Waltham, MA, USA). For analysis, inhibitory potency of test drugs was normalized to uptake inhibition caused by the potent VMAT inhibitor reserpine.

[8] = system: rat brain synaptosomes; set-up: method as in PMID 26738428; settings: cited from earlier work
[9] = system: VMAT2; set-up: method as in PMID 25771452; settings: racemic; cited from earlier work
[10] = indicated doses (1, 5 and 10 mg kg-1) intraperitoneal

Row | Structure (SMILES) | extracellular 5-HT in the NAc (GRAB5-HT fluorescence) ([1]; 10 mg kg-1 intraperitoneal) | immobility time in the FST versus vehicle ([2]; 5 mg kg-1 intraperitoneal) | immobility time in the FST versus vehicle ([2]; 10 mg kg-1 intraperitoneal) | effect on release of preloaded [3H]5-HT [3] | IC50 [4] [µM] | DAT/SERT ratio [4] | IC50 [5] [µM] | further results
1 | CN[C@H](C)C(=O)c1ccc(C(F)(F)F)cc1 [R-4-TFMMC, 4-trifluoromethyl-N-methylcathinone] | no effect on 5-HT was observed | had no effect | had no effect | did not alter basal release of 5-HT | 153 | 0.15 | 22.6 | immobility time in the FST versus vehicle ([2]; 1 mg kg-1 intraperitoneal): had no effect
2 | CN[C@@H](C)C(=O)c1ccc(C)cc1 [S-4-MMC, 4-methyl-N-methylcathinone] |  | significantly reduced immobility time versus vehicle | significantly reduced immobility time versus vehicle | robustly increased | 10.3 | 1.06 | 10.9 | time spent immobile in the FST, male and female mice ([2]; 5 mg kg-1 intraperitoneal, male and female mice): significantly reduced the time spent immobile regardless of sex; vertical counts in the open field test [6, 10]: affected vertical counts; horizontal locomotor activity (total distance traveled) in the open field test [6, 10]: did not differ from vehicle; inhibition of VMAT-mediated transport compared to MDMA [7]: no difference
3 | Cc1ccc(C(=O)[C@@H](C)N)cc1 [R-4-MC, 4-methylcathinone] |  | had no effect | had no effect | did not alter basal release of 5-HT | 9.6 | 19.3 | 186 | extracellular 5-HT in the NAc (GRAB5-HT fluorescence) ([1]; 5 mg kg-1 intraperitoneal): no effect on 5-HT was observed; immobility time in the FST versus vehicle ([2]; 1 mg kg-1 intraperitoneal): had no effect; 5-HT release efficacy in rat brain synaptosomes [8]: fully efficacious 5-HT releaser
4 | CNC(C)C(=O)c1ccc(C)cc1 (stereo not shown) [4-MMC, 4-methyl-N-methylcathinone] |  |  |  |  |  |  |  | potency to inhibit VMAT2-mediated uptake, lower than that of MDMA [9]: 10 fold
5 | CN[C@@H](C)C(=O)c1ccccc1 [S-MC, N-methylcathinone] |  |  |  | little effect | 9.1 | 43.2 | 393 | 
6 | CN[C@H](C)C(=O)c1ccccc1 [R-MC, N-methylcathinone] |  |  |  | did not alter basal release of 5-HT | 10.6 | 90.7 | 964 | 
7 | CNCCC(Oc1ccc(C(F)(F)F)cc1)c1ccccc1 (stereo not shown) [fluoxetine, Fluoxetine hydrochloride, reference compound] | without effect |  |  |  |  |  |  | 
8 | CN[C@H](C)C(=O)c1ccc(C)cc1 [R-4-MMC, 4-methyl-N-methylcathinone] |  |  | significantly reduced immobility time | did not alter basal release of 5-HT | 12.5 | 6.2 | 77.1 | horizontal locomotor activity (total distance traveled) in the open field test ([6]; 10 mg kg-1 intraperitoneal): significantly affected horizontal locomotor activity
9 | CCN[C@@H](C)Cc1cccc(C(F)(F)F)c1 [D-FEN, d-fenfluramine, reference compound] | increased 5-HT when compared to saline |  |  |  |  |  |  | GRAB5-HT basal fluorescence in the NAc ([1]; 3 and 10 mg kg-1 intraperitoneal): increased the basal fluorescence in a dose-dependent manner; relative GRAB5-HT fluorescence at peak versus saline ([1]; t = 700-900 s post injection, drug alone, D-FEN 10, S-4-MC 5, S-4-TFMMC 10 mg kg-1 intraperitoneal): Significant effects
